Assay results taken from article PMC4472604 (ACS chemical neuroscience, 2015).

Legend:
DOR [1] = molecular target: T1, DOR (Mus musculus, UniProt P32300); experiment: [125I]-3 saturation binding in DOR-CHO membranes; conditions: mean ± SEM
MOR = MOR (Mus musculus, UniProt P42866); experiment: Competition binding against [125I]BNtxA in MOR-CHO membranes
KOR = KOR (Mus musculus, UniProt P33534); experiment: Competition binding against [125I]BNtxA in KOR-CHO membranes
6TM/E11 sites = 6TM/E11 sites (Mus musculus, UniProt P42866); assay type: binding
DOR [2] = molecular target: T1, DOR; experiment: Competition binding against [125I]-3

Tyr-D-Ala-(p-^125I)Phe-Glu-Ile-Ile-Gly-NH2 [[^125I]-3]
Bmax (DOR [1]): 196.97 ± 12.44 fmol/mg

CC(C)[C@H](NC(=O)[C@H](CCC(=O)O)NC(=O)[C@H](Cc1ccccc1)NC(=O)[C@@H](C)NC(=O)[C@@H](N)Cc1ccc(O)cc1)C(=O)N[C@H](C(=O)NCC(N)=O)C(C)C [[D-Ala^2]deltorphin II, Tyr-D-Ala-Phe-Glu-Val-Val-Gly-NH2]
Ki (MOR): > 1000 nM | Ki (KOR): > 1000 nM | Ki (6TM/E11 sites): > 1000 nM

Oc1ccc2c3c1O[C@H]1c4oc5ccccc5c4C[C@@]4(O)[C@@H](C2)N(CC2CC2)CC[C@]314 [Naltriben]
Ki (DOR [2]): 0.14 ± 0.04 nM

Oc1ccc2c3c1O[C@H]1c4[nH]c5ccccc5c4C[C@@]4(O)[C@@H](C2)N(CC2CC2)CC[C@]314 [Naltrindole]
Ki (DOR [2]): 0.79 ± 0.16 nM
